# Measured values reported in US20070280982A1, “Antimicrobial compositions comprising hop acid alkali salts and uses thereof” (priority 2006, published 2007).
# Tests used:
# B. subtilis = experiment: Shelf-life extension (bacteriostatic) assay, broth dilution, FIG. 1 and FIG. 3; format: cell-based, Bacillus subtilis; details: glycine alone versus combined with beta acid sodium salts
# Protocol: Shelf-life extension assays were performed using the broth dilution method. Final inoculum concentration was […]. Microbial growth was assayed with a spectrophotometer by monitoring the absorption at 600 nm after 2 to 3 days. […] After incubation, colonies were counted.
# Bacillus subtilis = details: cited from earlier work
smiles,measurement,setting,value
NCC(=O)O [Glycine],"Effect on bacterial growth, alone or in combination (FIG. 3)",B. subtilis,almost no effect on bacterial growth
same,Known activity against Bacillus subtilis,Bacillus subtilis,relatively weak activity
